Assay [1] has as its target Collagenase-3 (MMP-13) (Homo sapiens, UniProt P45452). As to the kind of experiment: Collagenase-3 (MMP-13) inhibitory activity, fluorogenic peptide substrate cleavage. In kind it is biochemical. The note with it: read-out: MMP13 IC50. In short, it runs like this:
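Recombinant pro-MMP-13 activated with 1 mM APMA; inhibitor preincubated 60 min, then 5 μM MCA-Lys-Pro-Leu-Gly-Leu-Dpa-Ala-Arg-NH2 added in Tris-Cl pH 7.5 buffer with Zn2+, Ca2+, Brij-35, 1.0% DMSO, 20-25 °C. Fluorescence (ex 325/em 405 nm) read after 60 min; IC50 versus uninhibited control.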

Assay [2] addresses T1, Gelatinase (MMP-2) (Homo sapiens, UniProt P08253).
T1 sequence (P08253 110-660): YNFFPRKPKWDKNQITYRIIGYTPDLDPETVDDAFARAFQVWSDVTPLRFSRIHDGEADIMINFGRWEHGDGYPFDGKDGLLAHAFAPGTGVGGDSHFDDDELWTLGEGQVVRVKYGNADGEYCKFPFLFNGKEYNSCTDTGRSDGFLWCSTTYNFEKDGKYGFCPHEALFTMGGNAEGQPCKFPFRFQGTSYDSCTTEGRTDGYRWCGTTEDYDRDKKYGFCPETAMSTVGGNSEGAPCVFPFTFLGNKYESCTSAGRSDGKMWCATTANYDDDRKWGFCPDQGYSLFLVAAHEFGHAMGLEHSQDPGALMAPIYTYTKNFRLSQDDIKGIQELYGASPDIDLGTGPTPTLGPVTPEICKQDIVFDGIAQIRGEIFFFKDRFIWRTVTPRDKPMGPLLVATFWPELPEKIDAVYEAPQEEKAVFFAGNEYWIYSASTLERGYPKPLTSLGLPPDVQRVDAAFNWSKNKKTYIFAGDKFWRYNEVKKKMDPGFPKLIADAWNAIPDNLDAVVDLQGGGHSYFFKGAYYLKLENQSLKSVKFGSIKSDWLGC
In words: Gelatinase (MMP-2) inhibitory activity, fluorogenic peptide substrate cleavage. The format is biochemical. The note with it: read-out: MMP02 IC50. In short, it runs like this:
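Fluorogenic assay with MCA-Lys-Pro-Leu-Gly-Leu-Dpa-Ala-Arg-NH2 at 5 μM in Tris-Cl pH 7.5 buffer with ZnCl2, CaCl2, Brij-35 and 1.0% DMSO, 20-25 °C. Enzyme preincubated with inhibitor 60 min; fluorescence (ex 325/em 405 nm) read 60 min after substrate addition. IC50 relative to uninhibited control.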

This passage reports IC50 results from patent publication US20130096105A1, “ArylSulfonamide Based Matrix Metalloprotease Inhibitors” (NOVARTIS AG, priority 2008, published 2013).

Broadly, the IC50 is the concentration that inhibits the measured activity by half.

Take `Cc1cc(-c2c[nH]c3cc(C(=O)c4cccc(S(N)(=O)=O)c4)ccc23)ccn1` [Example 10, 3-[3-(2-Methyl-pyridin-4-yl)-1H-indole-6-carbonyl]-benzenesulfonamide]: the IC50 in assay [1] is 30 nM; in assay [2], 3400 nM.

As to `NS(=O)(=O)c1cc(C(=O)c2ccc(C(=O)NCCCCc3ccccc3)cc2)ccc1Cl` [Example 37, 4-(4-Chloro-3-sulfamoyl-benzoyl)-N-(4-phenyl-butyl)-benzamide], the IC50 was 8900 nM in assay [1] and 22800 nM in assay [2].

Take `CC(C)CCOc1ccc(C(=O)c2ccc(Cl)c(S(N)(=O)=O)c2)cc1` [Example 18, 2-Chloro-5-[4-(3-methyl-butoxy)-benzoyl]-benzenesulfonamide]: the IC50 turned out to be 600 nM in assay [1] and 700 nM in assay [2].

“2-Chloro-5-(4-cyclopropyl-benzoyl)-benzenesulfonamide [Example 27]”: the values for the IC50 in assay [1] and in assay [2] were 9640 nM and 7460 nM, respectively.

`NS(=O)(=O)c1cc(C(=O)c2ccc3c(-c4ccnc(OCCN5CCOCC5)c4)c[nH]c3c2)ccc1Cl` [Example 143, 2-Chloro-5-{3-[2-(2-morpholin-4-yl-ethoxy)-pyridin-4-yl]-1H-indole-6-carbonyl}-benzenesulfonamide]: the IC50 is 150 nM in assay [1] and 2850 nM in assay [2].

As for `NS(=O)(=O)c1cc(C(=O)c2ccc(-c3ccccc3)cc2)ccc1Cl` [Example 59, 5-(Biphenyl-4-carbonyl)-2-chloro-benzenesulfonamide], the IC50 in assay [1] was found to be 2630 nM; in assay [2] it was 1160 nM.

For `NS(=O)(=O)c1cc(C(=O)c2ccc3nc[nH]c3c2)ccc1Cl` [Example 97, 5-(3H-Benzoimidazole-5-carbonyl)-2-chloro-benzenesulfonamide], the IC50 in assay [1] was 630 nM; in assay [2], 1210 nM.

Consider `NS(=O)(=O)c1cc(C(=O)c2ccc(N3CC=CC3)cc2)ccc1Cl` [Example 81, 2-Chloro-5-[4-(2,5-dihydro-pyrrol-1-yl)-benzoyl]-benzenesulfonamide], for which the figures for the IC50 in assay [1] and in assay [2] were 1010 nM and 1310 nM, respectively.

For `NS(=O)(=O)c1cc(C(=O)c2ccc(C3CCCCC3)cc2)ccc1Cl` [Example 29, 2-Chloro-5-(4-cyclohexyl-benzoyl)-benzenesulfonamide], the IC50 in assay [1] turned out to be 11300 nM; in assay [2] it was 13300 nM.

As to `COCCCc1cc(-c2c[nH]c3cc(C(=O)c4ccc(Cl)c(S(N)(=O)=O)c4)ccc23)ccn1` [Example 140, 2-Chloro-5-{3-[2-(3-methoxy-propyl)-pyridin-4-yl]-1H-indole-6-carbonyl}-benzenesulfonamide], the IC50 came out at 7 nM in assay [1] and 360 nM in assay [2].

Regarding `NS(=O)(=O)c1cc(C(=O)c2ccc(Nc3ccccc3)cc2)ccc1Cl` [Example 92, 2-Chloro-5-(4-phenylamino-benzoyl)-benzenesulfonamide], the half-inhibitory concentration (IC50) in assay [1] is 20700 nM; in assay [2] it was 22800 nM.

Turning to `NS(=O)(=O)c1cc(C(=O)c2ccc(N3CCCCC3)cc2)ccc1Cl` [Example 83, 2-Chloro-5-(4-piperidin-1-yl-benzoyl)-benzenesulfonamide], the IC50 in assay [1] stood at 1770 nM; in assay [2], 870 nM.

As to `Cc1ccc(C)n1-c1ccc(C(=O)c2ccc(Cl)c(S(N)(=O)=O)c2)cc1F` [Example 109, 2-Chloro-5-[4-(2,5-dimethyl-pyrrol-1-yl)-3-fluoro-benzoyl]-benzenesulfonamide], the IC50 in assay [1] stood at 19900 nM; in assay [2] it was 21800 nM.

With `NS(=O)(=O)c1cc(C(=O)c2ccc3c(-c4ccc5[nH]ccc5c4)c[nH]c3c2)ccc1Cl` [Example 129, 5-(1H,1′H-[3,5′]Biindolyl-6-carbonyl)-2-chloro-benzenesulfonamide], the IC50 in assay [1] worked out at 1650 nM; in assay [2], 2950 nM.

Regarding `NS(=O)(=O)c1cc(C(=O)c2ccc(N3CCC(c4ccccc4)CC3)cc2)ccc1Cl` [Example 85, 2-Chloro-5-[4-(4-phenyl-piperidin-1-yl)-benzoyl]benzenesulfonamide], the IC50 was determined as 570 nM in assay [1] and 2050 nM in assay [2].

Regarding `NS(=O)(=O)c1cc(C(=O)c2ccc(C#Cc3ccccc3)cc2)ccc1Cl` [Example 32, 2-Chloro-5-(4-phenylethynyl-benzoyl)-benzenesulfonamide], the IC50 in assay [1] is 10000 nM; in assay [2] it was 8300 nM.

For `NS(=O)(=O)c1cc(C(=O)c2ccc(O)cc2)ccc1Cl` [Example 15, 2-Chloro-5-(4-hydroxy-benzoyl)-benzenesulfonamide], the values for the IC50 in assay [1] and in assay [2] were 10000 nM and 5160 nM, respectively.

Turning to `CCOC(=O)N1CCc2[nH]c3cc(C(=O)c4ccc(Cl)c(S(N)(=O)=O)c4)ccc3c2C1` [Example 103, 7-(4-Chloro-3-sulfamoyl-benzoyl)-1,3,4,5-tetrahydro-pyrido[4,3-b]indole-2-carboxylic acid ethyl ester], the values for the IC50 in assay [1] and in assay [2] were 360 nM and 850 nM, respectively.

As to `Cc1ccc(C(=O)c2ccc3cc[nH]c3c2)cc1S(N)(=O)=O` [Example 145, 5-(1H-Indole-6-carbonyl)-2-methyl-benzenesulfonamide], the IC50 in assay [1] turned out to be 100 nM; in assay [2], 200 nM.

On to `NS(=O)(=O)c1cc(C(=O)c2ccc3cc[nH]c3c2)ccc1Cl` [Example 115, 2-Chloro-5-(1H-indole-6-carbonyl)-benzenesulfonamide], for which the IC50 was found to be 178 nM in assay [1] and 218 nM in assay [2].

`NS(=O)(=O)c1cc(C(=O)c2ccc(-c3ccsc3)cc2)ccc1Cl` [Example 40, 2-Chloro-5-(4-thiophen-3-yl-benzoyl)-benzenesulfonamide]: the IC50 in assay [1] is 7060 nM; in assay [2], over 30000 nM.

Regarding `CN1C(=O)CCC2=C1Cc1cc(C(=O)c3ccc(Cl)c(S(N)(=O)=O)c3)ccc12` [Example 107, 2-Chloro-5-(1-methyl-2-oxo-2,3,4,9-tetrahydro-1H-indeno[2,1-b]pyridine-7-carbonyl)-benzenesulfonamide], the IC50 in assay [1] is 69 nM; in assay [2], 27 nM.

Regarding `CS(=O)(=O)c1ccc(-c2c[nH]c3cc(C(=O)c4ccc(Cl)c(S(N)(=O)=O)c4)ccc23)cc1` [Example 124, 2-Chloro-5-[3-(4-methanesulfonyl-phenyl)-1H-indole-6-carbonyl]-benzenesulfonamide], the IC50 in assay [1] is 540 nM; in assay [2], 19700 nM.

Turning to `Cc1cc(Br)ccc1C(=O)c1ccc(Cl)c(S(N)(=O)=O)c1` [Example 46, 5-(4-Bromo-2-methyl-benzoyl)-2-chloro-benzenesulfonamide], the IC50 in assay [1] amounted to 210 nM; in assay [2], 150 nM.

Turning to `NS(=O)(=O)c1cc(C(=O)c2ccc3c(-c4ccnc(CCCN5CCOCC5)c4)c[nH]c3c2)ccc1Cl` [Example 141, 2-Chloro-5-{3-[2-(3-morpholin-4-yl-propyl)-pyridin-4-yl]-1H-indole-6-carbonyl}-benzenesulfonamide], the IC50 in assay [1] was 20 nM; in assay [2] it was 1100 nM.

On to `COc1ccc(C(=O)c2ccc(Cl)c(S(=O)(=O)NCCc3ccc(F)cc3)c2)cc1` [Example 13, 2-Chloro-N-[2-(4-fluoro-phenyl)-ethyl]-5(4-methoxy-benzoyl)-benzenesulfonamide], for which the IC50 came to 6900 nM in assay [1] and 8800 nM in assay [2].

As for `O=C(c1ccc(-c2cccc(CO)c2)cc1)c1ccc(Cl)c(S(=O)(=O)O)c1` [Example 71, 2-Chloro-5-(3′-hydroxymethyl-biphenyl-4-carbonyl)-benzenesulfonic acid], the IC50 was 1400 nM in assay [1] and 1090 nM in assay [2].

For `CN(C)c1ccc(C(=O)c2ccc(Cl)c(S(N)(=O)=O)c2)cc1` [Example 78, 2-Chloro-5-(4-dimethylamino-benzoyl)-benzenesulfonamide], the IC50 in assay [1] is 350 nM; in assay [2], 270 nM.

`CCc1cc(-c2c[nH]c3cc(C(=O)c4ccc(Cl)c(S(N)(=O)=O)c4)ccc23)ccn1` [Example 138, 2-Chloro-5-[3-(2-ethyl-pyridin-4-yl)-1H-indole-6-carbonyl]-benzenesulfonamide]: the IC50 in assay [1] was found to be 60 nM; in assay [2], 3550 nM.

Take `CN(C)CCOc1cc(-c2c[nH]c3cc(C(=O)c4ccc(Cl)c(S(N)(=O)=O)c4)ccc23)ccn1` [Example 142, 2-Chloro-5-{3-[2-(2-dimethylamino-ethoxy)-pyridin-4-yl]-1H-indole-6-carbonyl}-benzenesulfonamide]: the results for the IC50 in assay [1] and in assay [2] were 17 nM and 200 nM, respectively.

Consider `CCCCCOc1ccc(C(=O)c2ccc(Cl)c(S(N)(=O)=O)c2)cc1` [Example 20, 2-Chloro-5-(4-pentyloxy-benzoyl)-benzenesulfonamide], for which the IC50 in assay [1] worked out at 13600 nM; in assay [2] it was 11000 nM.

With “2-Chloro-5-(4-pyridin-4-yl-benzoyl)-benzenesulfonamide [Example 42]”, the values for the IC50 in assay [1] and in assay [2] were 1500 nM and 510 nM, respectively.
